Tests used:
Format in all cases: in vivo, Sprague Dawley rats
[1] = system: rats with bilateral 6-OHDA lesions of the NTS; test: BP and HR recording and survival in rats with 6-OHDA lesions of the NTS (rat model mimicking fatal EV 71 encephalitis); conditions: for survival time after NTS lesion: n=6, 6-OHDA rats died within 7 hours
Description: (§1) Three sets of experiments were designed according to the three specific aims mentioned above. The first set of experiments was to establish a rat model by micro-injecting 6-hydroxydopamin (6-OHDA) into NTS leading to acute fulminating hypertension and pulmonary hemorrhagic edema. We recorded the blood pressure (BP) and heart rate (HR) in trend. Two groups of rats (n=6 in each group) were studied: 1) an intervention group in which 6-OHDA (Sigma, […]) dissolved in vehicle (0.8% ascorbic acid in saline) was injected into NTS bilaterally; and 2) a control group that received injections of equal volumes of vehicle alone. Each group of rats was anesthetized with urethane (1 g/kg, i.p.) and connected to oscillator circuits for BP and HR recording via […]. For microinjections into the NTS, the rats were anesthetized and placed in a stereotaxic frame; then the dorsal surface of the medulla was exposed. A glass cannula was filled with L-glutamate (0.154 mmol/60 n1) to functionally identify the NTS.
(§2) The third set of experiments (intervention-treatment and control-treatment groups) was to infuse the ganglionic blocker (hexamethonium (Sigma), 25 mg/kg, iv) via the femoral vein at the time point of 10 minutes after NTS lesion to record BP and HR in trend (n=6 in each group) and the rats respectively were sacrificed at the time point (0, 3, 6 and 12 hours) for analyzing the parameters as discussed in the second set of experiments.

[2] = system: control rats with NTS microinjected with vehicle; test: BP and HR recording in control-treatment group (vehicle injected into NTS, then hexamethonium); conditions: no 6-OHDA lesion; hexamethonium 25 mg/kg iv
Description: as §1, with “NTS. […]” for “NTS.”

[3] = system: rats with bilateral 6-OHDA lesions of the NTS; test: Epinephrine and norepinephrine levels by enzyme immunoassay in rats with 6-OHDA lesions
Experimental: as §2
All blood samples were collected into micro-tubes and placed immediately into to an ice bath. The samples, then, were centrifuged at 10000 rpm for 20 minutes at 4° C. Aliquots of plasma were removed and stored at −80° C. until assayed for content of epinephrine and norepinephrine within four weeks utilizing enzyme immunoassay for the high-sensitive quantitative determination by Labor Diagnostika Nord-Medicrop Inc.

[4] = system: rats with bilateral 6-OHDA lesions of the NTS; test: Echocardiography in rats with 6-OHDA lesions
Experimental: After the first set of the rat model was established, the second set of experiments intended to determine some time points for analysis. Rats were anesthetized with pentobarbital (50 mg/kg, ip) before NTS lesion. After surgery (lesion of the NTS), the wounds were closed and the rats were removed from the stereotaxic frame for further observation. Each rat was placed in a small cage and woken within 30 minutes for free activity. The rat were respectively sacrificed (intervention and control group, n=6 in each group) at different time point (0, 3 and 6 hours) for analyzing histopathology and biochemistry from blood, brain, heart and lung. Before sacrificing, echocardiography was performed to exanimate left ventricular (LV) wall thickness and cardiac function.
as §2
Rats were immobilized and shaved on the chest for echocardiographic examinations using commercially available equipment (Vivid 7, GE Ultrasound, Horten, Norway) equipped with 10-MHz phased array transducers. All the records were stored digitally as two-dimensional cine loops and analyzed with customized dedicated research software (Echo PAC, GE Ultrasound, Horten, Norway). Two-dimensionally guided M-mode recordings were obtained from the parasternal short-axis view at a depth of 2 cm at the level of the papillary muscles. M-Mode tracing were recorded at a speed of 200 mm/s. The measurements were made using the method of the American Society of Echocardiography and the parameters were measured digitally on the M-mode tracing and averaged from 5 consecutive cardiac cycles.

[5] = system: rats with bilateral 6-OHDA lesions of the NTS; test: Heart histopathology and immunohistochemistry (H&E, troponin T, BNP, connexin 43) in rats with 6-OHDA lesions
Experimental: as §2
(§3) For hematoxylin and eosin staining, the rat brain, heart, and lungs were excised immediately after blood sampling. They were rinsed with saline, free from blood or fatty tissue, lightly blotted with filter paper, and then were placed in 10% formalin for five days and blocked, embedded in paraffin, cut in 4 μm sections, and stained with hematoxylin and eosin.
(§4) Immunohistochemical analysis (troponin T and brain natriuretic peptide in heart tissue, neutrophil cell in lung tissue, and connexin 43 assays in the lung and heart tissues) was performed on the sections after the paraffin was melted in an oven at 70° C. for one hour. The sections were deparaffinized, microwaved in citric buffer (10 mmol/L, pH 6.0), blocked in 3% goat serum, and incubated with anti-cardiac troponin T antibody (1:200; Abeam), anti-myosin VIIa antibody (1:200; Abeam), anti-brain natriuretic peptide polyclonal antibody (1:1000; Thermo Fisher Scientific Inc.), anti-neutrophil elastase antibody (1:400; Abeam), and anti-connexin 43/GJA1 antibody (1:200; Abcam) overnight at 4° C. Next, the sections were incubated with biotinylated secondary antibodies (1:200; Vector Laboratories, Burlingame, Calif., USA) for one hour and in AB complex (1:100) for 30 minutes at room temperature. The sections were visualized with a DAB substrate kit (Vector Laboratories) and counterstained with hematoxylin. The sections were then photographed with a microscope mounted with a charge-coupled device camera.

[6] = system: rats with bilateral 6-OHDA lesions of the NTS; test: Pulmonary edema index and gross lung specimens in rats with 6-OHDA lesions; conditions: n=6 per group
Experimental: as §2
After the blood-sampled rats were sacrificed, the chest each of the rats was opened to remove the lung and the heart, and then the skull was opened for NTS tissue. To estimate the liquid accumulation in the lungs, both lungs were weighted, then dried in an oven at 80° C. for two days and weighted as dry lung weight. The total weight/body multiplies by 100 and wet-to-dry lung weight ratio were calculated for indicating the degree of pulmonary edema.

[7] = system: rats with bilateral 6-OHDA lesions of the NTS; test: Lung histopathology and immunohistochemistry (H&E, PMN, connexin 43) in rats with 6-OHDA lesions; conditions: n=6 per group
Experimental: as §2, §3, §4

SMILES: C[N+](C)(C)CCCCCC[N+](C)(C)C [hexamethonium]
- HR at 3 hours ([1]; 25 mg/kg iv 10 minutes after 6-OHDA lesion, 3 hours): no significant reduction in HR
- HR immediately after hexamethonium ([1]; 25 mg/kg iv 10 minutes after 6-OHDA lesion, immediately): a reduction in HR
- acute hypertension induced by 6-OHDA lesions ([1]; hexamethonium 25 mg/kg iv 10 minutes after NTS lesion, FIG. 1B): reversed
- acute high rise in mean blood pressure (MBP) caused by 6-OHDA lesions ([1]; hexamethonium 25 mg/kg iv 10 minutes after NTS lesion, FIG. 1C, n=6 per group): significantly reversed
- survival time after NTS lesion ([1]; hexamethonium 25 mg/kg iv 10 minutes after NTS lesion): at least 14 hours
- survival time after NTS lesion ([1]; hexamethonium 25 mg/kg iv 10 minutes after NTS lesion, listed as Hexamethonium): more than 14 hours
- labored breathing ([1]; hexamethonium 25 mg/kg iv 10 minutes after NTS lesion, up to 14 hours post NTS lesion): did not exhibit significantly labored breathing until 14 hours
- HR in control-treatment group [2]: no associated significant change in HR
- mean blood pressure in control-treatment group [2]: significantly decreased
- level of epinephrine at 6 hours, 6-OHDA vs 6-OHDA+Hexamethonium ([3]; 6 hours): no significant differences
- level of norepinephrine at 6 hours, 6-OHDA vs 6-OHDA+Hexamethonium ([3]; 6 hours): no significant differences
- acute high rise of epinephrine serum level post 6-OHDA lesions ([3]; within 3 hours after hexamethonium treatment, FIG. 1D, n=6 per group): significantly lowered
- acute high rise of norepinephrine serum level post 6-OHDA lesions ([3]; within 3 hours after hexamethonium treatment, FIG. 1E, n=6 per group): significantly lowered
- acute increase in fraction shortening ([4]; 3 hours): attenuated or reversed
- decrease in the LV internal dimension in diastole and systole ([4]; 3 hours and 6 hours): reversed or attenuated
- acute decrease in cardiac output after 6-OHDA lesions ([4]; 3 hours and 6 hours, FIG. 2E): prevented
- acute increase in ejection fraction ([4]; 3 hours, FIG. 2F): attenuated or reversed
- acute increase in LV wall thickness ([4]; 3 hours, FIGS. 2G and 2H): attenuated or reversed
- increase of irregular wavy fibers with increased eosinophilic staining of the cytoplasm and contraction bands necrosis in heart (H&E) ([5]; 3 hours and 6 hours, FIG. 3A, n=6 per group): prevented
- increased BNP staining in the cytoplasm (heart) ([5]; 3 hours and 6 hours, FIG. 3C, n=6 per group): reduced
- increased and strong expressions of connexin 43 in heart muscle ([5]; 3 hours and 6 hours, FIG. 3D, n=6 per group): reduced
- increased expression of cardiac troponin T ([5]; 6 hours, FIGS. 3B and 3E, n=4 per group): reduced
- mild and severe lung congestion (gross lungs) ([6]; 3 hours and 6 hours, FIG. 4A): prevented
- increased wet-to-dry lung weight ratio (W/D) ([6]; 6 hours, FIG. 4B): reversed
- increased total lung/body weight (BW) ([6]; 6 hours, FIG. 4C): reversed
- increased infiltrates of red blood cells and formation of hyaline membrane in lung (H&E) ([7]; 3 hours and 6 hours, FIG. 5A): prevented
- increased expressions of connexin 43 in lung ([7]; 3 hours and 6 hours, FIG. 5C): attenuated
- increased infiltrates of PMN in lung ([7]; 6 hours, FIG. 5B): reduced
